Measurements reported in patent US20220023293A1, “EZH2- FGFR INHIBITION IN CANCER” (Stichting Het Nederlands Kanker Instituut-Antoni van …, priority 2018, published 2022).

Columns and labels:
[1] = test system: BAP1 deficient mesothelioma cells; test: short term assay, drug response curve (Alamar blue), 384-well; type: cell-based, mouse; conditions: single agent; BNC versus NC derived early passage cell lines; FIG. 4B, 4C
Method: For short term colony formation assay, the mesothelioma cell lines were seeded in 500 cells per well in a 384-well plate. The next day drugs (GSK126, AZD4547, AZD2461, ABT-263) were added in a matrix format at the indicated concentration using HP D300 digital dispenser (HP) and cells were grown in presence of drug(s) or DMSO control for 5 days. Thereafter, 10% v/v Alamar blue was added to the well and incubated at 370 C for 4 hours. The plates were read with Tecan reader. The data were analyzed and plotted for drug response curve.

FGF7, FGF2 and FGFR2 = test: gene expression analysis (RNA sequencing) after EZH2 inhibitor treatment; type: cell-based, mouse; conditions: GSK126 treated versus DMSO treated Bap1 deficient cells; log 2 expression; FIG. 4E
Method: For gene expression analysis, RNA was isolated from tumor tissue with the Qiagen All prep DNA/RNA kit. Quantification and quality assessment for RNA were performed with a Bioanalyzer (RIN >6.5) (Agilent, Santa Clara, Calif., USA).
Sequencing libraries were constructed with a TruSeq mRNA Library Preparation Kit using poly-A-enriched RNA (Illumina, San Diego, Calif., USA). The samples were run on a HiSeq 2500 Illumina sequencer for cluster generation and sequencing.
For RNA sequencing and expression analysis, Illumina TruSeq mRNA libraries were sequenced with 51 base single reads on a HiSeq2000 using V3 chemistry (Illumina Inc., San Diego). The sequence reads were mapped to the mouse genome (mm10), using TopHat (2.0.12). TopHat was run with default. Reads with mapping quality less than 10 and non-primary alignments were discarded. Remaining reads were counted using HTSeq-cout. Statistical analysis of the differential expression of genes was performed using DESeq2. Genes with False Discovery Rate (FDR) for differential expression lower than 0.05 were considered significant. Batch effect within tumor samples from different source was corrected using ComBat with default options through the Bioconductor sva package 3.10.

SMILES: COc1cc(CCc2cc(NC(=O)c3ccc(N4C[C@@H](C)N[C@@H](C)C4)cc3)n[nH]2)cc(OC)c1 [AZD4547, N-[5-[2-(3,5-dimethoxyphenyl)ethyl]-1H-pyrazol-3-yl]-4-[(3R,5S)-3,5-dimethylpiperazin-1-yl]benzamide]
- drug response of BAP1 deficient versus proficient mesothelioma cells (dose response curve) [1]: hypersensitive

SMILES: CC[C@H](C)n1cc(C)c2c(C(=O)NCc3c(C)cc(C)[nH]c3=O)cc(-c3ccc(N4CCNCC4)nc3)cc21 [GSK126, 1-[(2S)-butan-2-yl]-N-[(4,6-dimethyl-2-oxo-1H-pyridin-3-yl)methyl]-3-methyl-6-(6-piperazin-1-ylpyridin-3-yl)indole-4-carboxamide]
- expression of FGF/FGFR pathway genes (FGF7, FGF2, FGFR2) (FGF7, FGF2 and FGFR2): upregulation of FGF/FGFR pathway genes
- drug response of BAP1 deficient versus proficient mesothelioma cells (dose response curve) [1]: hypersensitive
